In paper PMC10367051, “Comprehensive Mechanistic View of the Hydrolysis of Oxadiazole-Based Inhibitors by Histone Deacetylase 6 (HDAC6)” (ACS Chemical Biology, 2023):
Where a chain is given by its changes, count along the chain named.

Columns and labels:
wild-type zHDAC6 = molecular target: T1, wild-type zHDAC6 (Danio rerio, UniProt F8W4B7); assay: Inhibitor hydrolysis in vitro by purified wild-type HDAC6 (LC-MS/MS); format: biochemical; conditions: 20 μM 8, 2 μM zHDAC6, 30 °C
T1 construct: Danio rerio HDAC6 (amino acids 440–798; zHDAC6); His (N, cleaved yes); MBP (N, cleaved yes); made in house; host or cells: RIPL Escherichia coli
T1 sequence (F8W4B7 440-798): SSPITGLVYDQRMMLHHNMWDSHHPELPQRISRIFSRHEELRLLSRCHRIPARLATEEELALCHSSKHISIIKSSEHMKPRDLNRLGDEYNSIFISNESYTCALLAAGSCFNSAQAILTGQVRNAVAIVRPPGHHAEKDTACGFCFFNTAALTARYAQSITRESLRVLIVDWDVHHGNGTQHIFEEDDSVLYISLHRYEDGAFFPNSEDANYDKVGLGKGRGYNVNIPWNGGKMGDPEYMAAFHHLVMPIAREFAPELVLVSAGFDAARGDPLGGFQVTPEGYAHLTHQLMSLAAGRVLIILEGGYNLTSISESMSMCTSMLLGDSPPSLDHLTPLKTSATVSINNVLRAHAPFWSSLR
Protocol: The second catalytic domain of Danio rerio HDAC6 (amino acids 440–798; zHDAC6) was expressed in RIPL Escherichia coli as described previously using the pEC566-zHDAC6 expression vector.[16],[38] Briefly, bacteria were incubated at 37 °C with shaking (250 rpm) until the optical density reached an OD600 = 0.5. Then, the culture was cooled to 18 °C for 1 h, and recombinant protein expression was induced by the addition of 75 μM isopropyl β-D-1-thiogalactopyranoside together with 200 μM ZnSO4. The culture was grown at 18 °C for an additional 18 h and harvested by centrifugation at 5500g for 15 min. […] The purity of protein preparations was monitored by SDS-PAGE (Figure S2).
(§1) Mass spectrometry quantification of inhibitors/reaction products was carried out with a Shimadzu LCMS-8040 instrument (Shimadzu, HPLC Prominence system). […] Multiple reaction monitoring (MRM) parameters were optimized for each analyte, and corresponding major CID fragments were used for quantification. Analytes were quantified using corresponding calibration curves generated from pure compounds dissolved in water.
[…] Four microliter aliquots of reaction mixtures were injected into the system directly from the 96-well plate, and inhibitors/reaction products were quantitated as described above.

HDAC6(H574A) mutant = molecular target: T2, HDAC6(H574A) mutant (Danio rerio, UniProt F8W4B7, H574A); assay: Inhibitor hydrolysis in vitro by HDAC6(H574A) mutant (LC-MS/MS); format: biochemical; conditions: 20 μM compound, 2 μM enzyme, 30 °C
T2 construct: Danio rerio HDAC6 (amino acids 440–798; zHDAC6); His (N, cleaved yes); MBP (N, cleaved yes); made in house; host or cells: RIPL Escherichia coli
T2 sequence (F8W4B7 440-798 H574A): T1 sequence (F8W4B7 440-798) with H135A
Protocol: The zHDAC6 mutants (Y745F and H574A) were constructed using the Quick-change site-directed mutagenesis protocol with the pEC566-zHDAC6 expression plasmid as a template. Both mutants were expressed and purified as described above for wild-type zHDAC6 (Figure S2).
Mass spectrometry quantification of inhibitors/reaction products was carried out with a Shimadzu LCMS-8040 instrument (Shimadzu, HPLC Prominence system). Analytes were separated on a Kinetex XB-C18 2.6 μm, 100 Å column (50 × 2.1 mm; Phenomenex) in a linear 15–60% CH3CN/H2O gradient containing 0.1% formic acid at a flow rate of 0.8 mL min^–1 over 4 min. Multiple reaction monitoring (MRM) parameters were optimized for each analyte, and corresponding major CID fragments were used for quantification. Analytes were quantified using corresponding calibration curves generated from pure compounds dissolved in water.
[…] […] Four microliter aliquots of reaction mixtures were injected into the system directly from the 96-well plate, and inhibitors/reaction products were quantitated as described above.

[1] = test system: HEK293/HDAC6 cell lysates (stably transfected with human HDAC6); assay: Inhibitor hydrolysis in HEK293/HDAC6 cell lysates (LC-MS/MS); format: in vitro ADME; conditions: 20 μM 8, 2.5 mg mL^–1 protein, 37 °C
Protocol: HEK293 cells stably transduced with full-length human HDAC6 were generated following the protocol published previously.[40] Briefly, Lenti-X 293T and HEK293T cells were grown in T75 flasks in the DMEM/F-12/10% fetal bovine serum (FBS) medium under an atmosphere containing 5% CO2 at 37 °C. The Lenti-X 293T cells were transfected with the combination of pMD.2G, psPAX2, and pHR_CMV_MM320_hsHD6 (Figure S2) using Lipofectamine2000 (Invitrogen) according to the manufacturer’s protocol. Three days post-transfection, the virion-rich medium was collected by centrifugation, supplemented with polybrene (final concentration 10 μg mL^–1), and added to adherent HEK293T cells grown to 100% confluency. Three days post-infection, transduced HEK293T cells were expanded in FreeStyle 293 medium (GIBCO) supplemented with 1% FBS in an Erlenmeyer flask (suspension culture, 110 RPM). Transduction efficacy was determined by flow cytometry analysis to be >95%.
as §1, with “water. […]” for “water.”

CS(=O)(=O)N(Cc1ccc(-c2nnc(C(F)F)o2)cn1)c1cccc(Cl)c1 [compound 8]
time of near-complete depletion of the inhibitor (wild-type zHDAC6): approximately 120 min | time to full hydrolysis of the inhibitor (wild-type zHDAC6): < 180 min | hydrolysis by the HDAC6(H574A) mutant (HDAC6(H574A) mutant): no hydrolysis was observed | efficiency of hydrolysis in HEK293/HDAC6 lysate versus HEK293 lysate [1]: more efficient | hydrolysis in HEK293/HDAC6 cell lysate [1]: hydrolyzed 8 to 6 and 4
